How the values were obtained:
β-1 adrenergic receptors [1] = target: T1, β-1 adrenergic receptors (Cavia porcellus, UniProt H0W3H1); test: Guinea pig atrial strips, atrial rate (chronotropic response), β-1 agonist activity; assay type: cell-based
T1 construct: conventionally isolated tissue preparations (guinea pig atrial and tracheal strips); from tissue; host or cells: guinea pig atrial strips
Method: (§1) The pharmaceutical activity of the present compounds was determined in vitro using conventionally isolated tissue preparations (guinea pig atrial and tracheal strips). […] Both chronotropic (rate) and inotropic (force) responses were thereby assessed. […] The observed effect on tracheal muscle relaxation is equated with and considered to be an indication of bronchodilator activity. The β-1 and β-2 adrenergic receptor designations are those of Lands et al., Nature, 214, page 597 (1967).

β-1 adrenergic receptors [2] = target: T1, β-1 adrenergic receptors; test: Guinea pig atrial strips, atrial force (inotropic response), β-1 agonist activity; assay type: cell-based; settings: Atrial force (β-1)
Method: as §1

β-2 adrenergic receptors = target: T2, β-2 adrenergic receptors (Cavia porcellus, UniProt Q8K4Z4); test: Guinea pig tracheal strips, tracheal muscle relaxation, β-2 agonist activity (bronchodilator activity); assay type: cell-based
T2 construct: conventionally isolated tissue preparations (guinea pig atrial and tracheal strips); from tissue; host or cells: guinea pig tracheal strips
T2 sequence (Q8K4Z4 whole entry): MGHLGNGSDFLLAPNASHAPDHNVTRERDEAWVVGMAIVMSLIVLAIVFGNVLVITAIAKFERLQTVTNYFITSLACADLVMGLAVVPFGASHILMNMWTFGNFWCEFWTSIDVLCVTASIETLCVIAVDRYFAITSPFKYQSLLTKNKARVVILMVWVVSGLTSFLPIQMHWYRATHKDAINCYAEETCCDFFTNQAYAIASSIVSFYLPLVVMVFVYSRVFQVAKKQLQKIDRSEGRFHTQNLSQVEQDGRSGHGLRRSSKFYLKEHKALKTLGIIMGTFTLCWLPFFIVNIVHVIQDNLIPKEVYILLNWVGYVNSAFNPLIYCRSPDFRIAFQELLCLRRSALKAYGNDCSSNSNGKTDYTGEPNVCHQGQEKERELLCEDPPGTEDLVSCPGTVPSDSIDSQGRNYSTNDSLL
Method: as §1

[3] = Blood pressure of a rat after intravenous injection; assay type: in vivo; settings: injected intravenously

T1 sequence (H0W3H1 1-470): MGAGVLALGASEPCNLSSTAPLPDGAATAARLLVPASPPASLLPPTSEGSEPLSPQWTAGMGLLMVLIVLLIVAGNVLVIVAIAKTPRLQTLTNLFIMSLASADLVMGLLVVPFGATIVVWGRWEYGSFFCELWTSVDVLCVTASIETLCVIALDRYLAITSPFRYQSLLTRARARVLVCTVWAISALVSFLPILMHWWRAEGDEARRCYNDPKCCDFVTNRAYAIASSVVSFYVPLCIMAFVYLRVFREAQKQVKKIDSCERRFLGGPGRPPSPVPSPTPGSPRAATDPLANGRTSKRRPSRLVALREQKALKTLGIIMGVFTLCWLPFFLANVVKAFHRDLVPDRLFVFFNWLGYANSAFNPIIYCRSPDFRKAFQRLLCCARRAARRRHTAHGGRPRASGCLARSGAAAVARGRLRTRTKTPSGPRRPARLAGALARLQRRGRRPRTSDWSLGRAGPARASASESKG

CC(C)NCC(O)c1ccc2nc[nH]c2c1 (racemic) [R, S-BENZISO, R,S-1-(5-benzimidazolyl)-2-isopropylaminoethanol]
relative activity (β-1 adrenergic receptors [1]; Atrial rate (β-1), [ED50 (R,S-ISO)/ED50 (R,S-BENZISO)] × 100): 0.355
Emax (β-1 adrenergic receptors [1]; Atrial rate (β-1), maximum response relative to R,S-ISO × 100, mean ± S.E.M.): 50 ± 9%
EC50 (β-1 adrenergic receptors [1]; Atrial rate (β-1), mean ± S.E.M., n=5, administered as the dihydrochloride, read-out: pD2 (negative logarithm of ED50) (converted)): 6.17 µM
cardiac stimulation (β-1 force and rate) (β-1 adrenergic receptors [1]; in words, from Table I): cardiac stimulant
relative activity (β-1 adrenergic receptors [2]; [ED50 (R,S-ISO)/ED50 (R,S-BENZISO)] × 100): 0.355
Emax (β-1 adrenergic receptors [2]; maximum response relative to R,S-ISO × 100, mean ± S.E.M.): 33 ± 12%
EC50 (β-1 adrenergic receptors [2]; mean ± S.E.M., n=3, administered as the dihydrochloride, read-out: pD2 (negative logarithm of ED50) (converted)): 3.8 µM
relative activity (β-2 adrenergic receptors; Tracheal relaxation (β-2), [ED50 (R,S-ISO)/ED50 (R,S-BENZISO)] × 100): 4.79
Emax (β-2 adrenergic receptors; Tracheal relaxation (β-2), maximum response relative to R,S-ISO × 100, mean ± S.E.M.): 58 ± 7%
EC50 (β-2 adrenergic receptors; Tracheal relaxation (β-2), mean ± S.E.M., n=4, administered as the dihydrochloride, read-out: pD2 (negative logarithm of ED50) (converted)): 1.66 µM
bronchodilator activity (β-2) (β-2 adrenergic receptors; in words, from Table I): good bronchodilator activity
bronchodilator selectivity versus isoproterenol (β-2 adrenergic receptors; in words, from the β-2/β-1 ratio): more bronchodilator selective than is isoproterenol
Ratio, β-2/β-1 (β-2 adrenergic receptors; relative activity (tracheal relaxation)/relative activity (atrial rate)): 13.5
effect on blood pressure [3]: decrease blood pressure

— patent publication US4204069A, “Reductive alkylation” (Merck & Co., Inc., priority 1978, dated 1980)
